Assay results from ChEMBL document CHEMBL4184086, “Sinopestalotiollides A-D, cytotoxic diphenyl ether derivatives from plant endophytic fungus Pestalotiopsis palmarum” (Bioorg Med Chem Lett, 2018).

Legend:
Assay type in all cases: functional, cell-based
HeLa = experiment: Cytotoxicity against human HeLa cells by WST-8 assay
HCT-116 = experiment: Cytotoxicity against human HCT116 cells by WST-8 assay
A549 = experiment: Cytotoxicity against human A549 cells by WST-8 assay

| SMILES | IC50 (HeLa) | IC50 (HCT-116) | IC50 (A549) |
| --- | --- | --- | --- |
| C=C(C)C(O)Cc1ccc2c(c1OC)C(=O)OCc1cc(C)cc(O)c1O2 (configuration not stated) | 12.8 µM | 22.7 µM | 44.9 µM |
| C=C(C)C(CO)c1ccc2c(c1OC)C(=O)OCc1cc(C)cc(O)c1O2 (configuration not stated) | 18.9 µM | 15.7 µM | 31.3 µM |
| COC1=CC(=O)OC(CO)C1 (configuration not stated) | 15.6 µM | 24.4 µM | 47.8 µM |
| COc1c(/C=C/C(C)(CO)OC)ccc2c1C(=O)OCc1cc(C)cc(O)c1O2 (configuration not stated) | 1.19 µM | 2.66 µM | 2.14 µM |
| COc1c(C(CO)C(C)C)ccc2c1C(=O)OCc1cc(C)cc(O)c1O2 (configuration not stated) | 14.7 µM | 18.5 µM | 36.1 µM |
| COc1cccc2c1C(=O)c1c(O)c3c(c(O)c1C2=O)C[C@@](O)(C(=O)CO)C[C@@H]3O[C@H]1C[C@H](N)[C@H](O)[C@H](C)O1 [DOXORUBICIN] | 8.96 µM | 2.38 µM | – |
